Assay results from patent publication US11084826B2, “RSV antiviral pyrazolo- and triazolo-pyrimidine compounds” (Janssen Sciences Ireland Unlimited Company, priority 2015, dated 2021).

Test system: rgRSV224 virus
Test: Antiviral activity: inhibition of rgRSV224 (GFP-expressing RSV) replication in HeLa cells, GFP expression read-out
Type: cell-based, respiratory syncytial virus (RSV)
Conditions: human respiratory syncytial virus, HeLa, read-out: RSV HELA pEC50, rgRSV224 virus (MOI=1) in HeLa cells, GFP read-out (converted)
Experimental: (§1) Black 384-well clear-bottom microtiter plates (Corning, Amsterdam, The Netherlands) were filled via acoustic drop ejection using the echo liquid handler (Labcyte, Sunnyvale, Calif.). 200 nL of compound stock solutions (100% DMSO) were transferred to the assay plates. 9 serial 4-fold dilutions of compound were made, creating per quadrant the same compound concentration. The assay was initiated by adding 10 μL of culture medium to each well (RPMI medium without phenol red, 10% FBS-heat inactivated, 0.04% gentamycin (50 mg/mL). All addition steps are done by using a multidrop dispenser (Thermo Scientific, Erembodegem, Belgium). Next, rgRSV224 virus (MOI=1) diluted in culture medium was added to the plates. rgRSV224 virus is an engineered virus that includes an additional GFP gene (Hallak LK, Spillmann D, Collins PL, Peeples Me. Glycosaminoglycan sulfation requirements for respiratory syncytial virus infection; Journal of virology (2000), 74(22), 10508-13) and was in-licensed from the NIH (Bethesda, Md., USA). Finally, 20 μL of a HeLa cell suspension (3,000 cells/well) were plated. Medium, virus- and mock-infected controls were included in each test. The wells contain 0.05% DMSO per volume. Cells were incubated at 37° C. in a 5% CO2 atmosphere. Three days post-virus exposure, viral replication was quantified by measuring GFP expression in the cells by an in house developed MSM laser microscope (Tibotec, Beerse, Belgium). The EC50 was defined as the 50% inhibitory concentration for GFP expression. In parallel, compounds were incubated for three days in a set of white 384-well microtiter plates (Corning) and the cytotoxicity of compounds in HeLa cells was determined by measuring the ATP content of the cells using the ATPlite kit (Perkin Elmer, Zaventem, Belgium) according to the manufacturer's instructions. The CC50 was defined as the 50% concentration for cytotoxicity.

SMILES	EC50 [nM]
CCc1cc(C(=O)N2CCCCC[C@H]2C)nc2cc(-c3ccc4c(c3F)OC[C@@H](C(=O)O)C4)nn12 (racemic) [Compound F65]	141
CCc1cc(C(=O)N2CCc3sccc3[C@H]2C)nc2cc(-c3ccc4c(c3F)OCC(C(=O)O)=C4)nn12 (racemic) [Compound F66]	7.08
CC1c2ccsc2CCN1C(=O)c1cc(C2(C)CC2)n2nc(-c3ccc(-c4ccc(C(=O)O)cn4)cc3F)cc2n1 (racemic) [Compound F68]	43.7
CCc1cc(C(=O)N2CCCCC[C@H]2C)nc2cc(-c3ccc(C4CC=C(C(=O)O)CC4)cc3F)nn12 (mixture of isomers) [Compound F69]	195
CCc1cc(C(=O)N2CCCC3(CC=CC3)C2C)nc2cc(-c3ccc(/C=C/C(=O)O)cc3F)nn12 (racemic) [Compound M35]	200
CCc1cc(C(=O)N2CCc3sccc3C2C)nc2cc(-c3cccc(/C=C/C(=O)O)c3F)nn12 (racemic) [Compound M48]	12.9
CCc1cc(C(=O)N2CC[C@@H]3CCCC[C@@H]3[C@H]2C)nc2cc(-c3ccc(/C=C/C(=O)O)cc3F)nn12 (racemic) [Compound M50]	191
CCc1cc(C(=O)N2CCC3=C(CCCC3)C2C)nc2cc(-c3cccc(/C=C/C(=O)O)c3F)nn12 (racemic) [Compound M51]	162
C[C@@H]1CCCCCN1C(=O)c1cc(C2(C)CC2)n2nc(-c3ccc(C4C[C@H]4C(=O)O)cc3F)cc2n1 (mixture of isomers) [Compound O10]	28.8
C[C@@H]1CCCCCN1C(=O)c1cc(C2CCC2)n2nc(-c3ccc(C4C[C@H]4C(=O)O)cc3F)cc2n1 (mixture of isomers) [Compound O11]	30.2
CCc1cc(C(=O)N2CCCCCN2C)nc2cc(-c3ccc(C4C[C@H]4C(=O)O)cc3F)nn12 (mixture of isomers) [Compound O12]	174
CCc1cc(C(=O)N2CCCCC[C@H]2C)nc2cc(-c3ccc([C@@H]4C[C@@H]4C(=O)O)cc3F)nn12 (racemic) [Compound O16]	170
CCc1cc(C(=O)N2CCCCC[C@H]2C)nc2nc(-c3cccs3)nn12 (racemic) [Compound S1]	832
CCc1cc(C(=O)N2CCCCC[C@H]2C)nc2cc(-c3ccc(N(C)c4ccc(C(=O)O)cn4)cc3F)nn12 (racemic) [Compound W20]	355
CCc1cc(C(=O)N2CCCCC[C@H]2C)nc2cc(-c3ccc(N(C)[C@H]4C[C@@H](C(=O)O)C4)cc3F)nn12 (racemic) [Compound W23]	75.9
C[C@@H]1CCCCCN1C(=O)c1cc(C2(C)COC2)n2nc(-c3ccc(-n4cc(C(=O)O)cn4)cc3F)cc2n1 (racemic) [Compound W36]	151
CC1c2ccsc2CCN1C(=O)c1cc(C2(C)CC2)n2nc(-c3ccc(-n4cc(C(=O)O)cn4)cc3F)cc2n1 (racemic) [Compound W39]	28.2
CCc1cc(C(=O)N2CCc3sccc3[C@H]2C)nc2cc(-c3ccc(-n4cc(C(=O)O)cn4)cc3F)nn12 (racemic) [Compound W40]	21.9
CCc1cc(C(=O)N2CCn3cccc3C2C)nc2cc(-c3ccc(/C=C/C(=O)O)cc3F)nn12 (single isomer, unassigned) [Compound M44]	18.2
CCc1cc(C(=O)N2CCc3sccc3[C@H]2C)nc2cc(-c3cccc(/C=C/C(=O)O)c3F)nn12 (single isomer, unassigned) [Compound M49]	10

Test system: not listed separately
Test: Cytotoxicity in HeLa cells, ATP content measured with the ATPlite kit
Type: cell-based
Conditions: human, TOX HELA pCC50
Experimental: as §1

SMILES	CC50 at 3 days [nM]
CCc1cc(C(=O)N2CCCCC[C@H]2C)nc2cc(-c3ccc4c(c3F)OC[C@@H](C(=O)O)C4)nn12 (racemic) [Compound F65]	> 100000
CCc1cc(C(=O)N2CCc3sccc3[C@H]2C)nc2cc(-c3ccc4c(c3F)OCC(C(=O)O)=C4)nn12 (racemic) [Compound F66]	15500
CC1c2ccsc2CCN1C(=O)c1cc(C2(C)CC2)n2nc(-c3ccc(-c4ccc(C(=O)O)cn4)cc3F)cc2n1 (racemic) [Compound F68]	51300
CCc1cc(C(=O)N2CCCCC[C@H]2C)nc2cc(-c3ccc(C4CC=C(C(=O)O)CC4)cc3F)nn12 (mixture of isomers) [Compound F69]	> 25100
CCc1cc(C(=O)N2CCCC3(CC=CC3)C2C)nc2cc(-c3ccc(/C=C/C(=O)O)cc3F)nn12 (racemic) [Compound M35]	42700
CCc1cc(C(=O)N2CCc3sccc3C2C)nc2cc(-c3cccc(/C=C/C(=O)O)c3F)nn12 (racemic) [Compound M48]	> 25100
CCc1cc(C(=O)N2CC[C@@H]3CCCC[C@@H]3[C@H]2C)nc2cc(-c3ccc(/C=C/C(=O)O)cc3F)nn12 (racemic) [Compound M50]	46800
CCc1cc(C(=O)N2CCC3=C(CCCC3)C2C)nc2cc(-c3cccc(/C=C/C(=O)O)c3F)nn12 (racemic) [Compound M51]	66100
C[C@@H]1CCCCCN1C(=O)c1cc(C2(C)CC2)n2nc(-c3ccc(C4C[C@H]4C(=O)O)cc3F)cc2n1 (mixture of isomers) [Compound O10]	45700
C[C@@H]1CCCCCN1C(=O)c1cc(C2CCC2)n2nc(-c3ccc(C4C[C@H]4C(=O)O)cc3F)cc2n1 (mixture of isomers) [Compound O11]	47900
CCc1cc(C(=O)N2CCCCCN2C)nc2cc(-c3ccc(C4C[C@H]4C(=O)O)cc3F)nn12 (mixture of isomers) [Compound O12]	> 100000
CCc1cc(C(=O)N2CCCCC[C@H]2C)nc2cc(-c3ccc([C@@H]4C[C@@H]4C(=O)O)cc3F)nn12 (racemic) [Compound O16]	> 100000
CCc1cc(C(=O)N2CCCCC[C@H]2C)nc2nc(-c3cccs3)nn12 (racemic) [Compound S1]	> 100000
CCc1cc(C(=O)N2CCCCC[C@H]2C)nc2cc(-c3ccc(N(C)c4ccc(C(=O)O)cn4)cc3F)nn12 (racemic) [Compound W20]	63100
CCc1cc(C(=O)N2CCCCC[C@H]2C)nc2cc(-c3ccc(N(C)[C@H]4C[C@@H](C(=O)O)C4)cc3F)nn12 (racemic) [Compound W23]	79400
C[C@@H]1CCCCCN1C(=O)c1cc(C2(C)COC2)n2nc(-c3ccc(-n4cc(C(=O)O)cn4)cc3F)cc2n1 (racemic) [Compound W36]	> 25100
CC1c2ccsc2CCN1C(=O)c1cc(C2(C)CC2)n2nc(-c3ccc(-n4cc(C(=O)O)cn4)cc3F)cc2n1 (racemic) [Compound W39]	55000
CCc1cc(C(=O)N2CCc3sccc3[C@H]2C)nc2cc(-c3ccc(-n4cc(C(=O)O)cn4)cc3F)nn12 (racemic) [Compound W40]	36300
CCc1cc(C(=O)N2CCn3cccc3C2C)nc2cc(-c3ccc(/C=C/C(=O)O)cc3F)nn12 (single isomer, unassigned) [Compound M44]	> 25100
CCc1cc(C(=O)N2CCc3sccc3[C@H]2C)nc2cc(-c3cccc(/C=C/C(=O)O)c3F)nn12 (single isomer, unassigned) [Compound M49]	41700

Test system: not given
Test: not given
Conditions: not given

SMILES	melting point [°C]
CCc1cc(C(=O)N2CCCCC[C@H]2C)nc2cc(-c3ccc4c(c3F)OC[C@@H](C(=O)O)C4)nn12 (racemic) [Compound F65]	186.2
CCc1cc(C(=O)N2CCc3sccc3[C@H]2C)nc2cc(-c3ccc4c(c3F)OCC(C(=O)O)=C4)nn12 (racemic) [Compound F66]	256.54
CC1c2ccsc2CCN1C(=O)c1cc(C2(C)CC2)n2nc(-c3ccc(-c4ccc(C(=O)O)cn4)cc3F)cc2n1 (racemic) [Compound F68]	203.36
CCc1cc(C(=O)N2CCCCC[C@H]2C)nc2cc(-c3ccc(C4CC=C(C(=O)O)CC4)cc3F)nn12 (mixture of isomers) [Compound F69]	176.26
CCc1cc(C(=O)N2CCCC3(CC=CC3)C2C)nc2cc(-c3ccc(/C=C/C(=O)O)cc3F)nn12 (racemic) [Compound M35]	206.72
CCc1cc(C(=O)N2CCc3sccc3C2C)nc2cc(-c3cccc(/C=C/C(=O)O)c3F)nn12 (racemic) [Compound M48]	255.5
CCc1cc(C(=O)N2CC[C@@H]3CCCC[C@@H]3[C@H]2C)nc2cc(-c3ccc(/C=C/C(=O)O)cc3F)nn12 (racemic) [Compound M50]	184.15
CCc1cc(C(=O)N2CCC3=C(CCCC3)C2C)nc2cc(-c3cccc(/C=C/C(=O)O)c3F)nn12 (racemic) [Compound M51]	227.14
C[C@@H]1CCCCCN1C(=O)c1cc(C2(C)CC2)n2nc(-c3ccc(C4C[C@H]4C(=O)O)cc3F)cc2n1 (mixture of isomers) [Compound O10]	333.75
C[C@@H]1CCCCCN1C(=O)c1cc(C2CCC2)n2nc(-c3ccc(C4C[C@H]4C(=O)O)cc3F)cc2n1 (mixture of isomers) [Compound O11]	249.19
CCc1cc(C(=O)N2CCCCCN2C)nc2cc(-c3ccc(C4C[C@H]4C(=O)O)cc3F)nn12 (mixture of isomers) [Compound O12]	204.71
CCc1cc(C(=O)N2CCCCC[C@H]2C)nc2cc(-c3ccc([C@@H]4C[C@@H]4C(=O)O)cc3F)nn12 (racemic) [Compound O16]	333.46
CCc1cc(C(=O)N2CCCCC[C@H]2C)nc2nc(-c3cccs3)nn12 (racemic) [Compound S1]	162 to 163
CCc1cc(C(=O)N2CCCCC[C@H]2C)nc2cc(-c3ccc(N(C)c4ccc(C(=O)O)cn4)cc3F)nn12 (racemic) [Compound W20]	132
CCc1cc(C(=O)N2CCCCC[C@H]2C)nc2cc(-c3ccc(N(C)[C@H]4C[C@@H](C(=O)O)C4)cc3F)nn12 (racemic) [Compound W23]	182.69
C[C@@H]1CCCCCN1C(=O)c1cc(C2(C)COC2)n2nc(-c3ccc(-n4cc(C(=O)O)cn4)cc3F)cc2n1 (racemic) [Compound W36]	223.2
CC1c2ccsc2CCN1C(=O)c1cc(C2(C)CC2)n2nc(-c3ccc(-n4cc(C(=O)O)cn4)cc3F)cc2n1 (racemic) [Compound W39]	265.13
CCc1cc(C(=O)N2CCc3sccc3[C@H]2C)nc2cc(-c3ccc(-n4cc(C(=O)O)cn4)cc3F)nn12 (racemic) [Compound W40]	168.11
CCc1cc(C(=O)N2CCn3cccc3C2C)nc2cc(-c3ccc(/C=C/C(=O)O)cc3F)nn12 (single isomer, unassigned) [Compound M44]	127.94
CCc1cc(C(=O)N2CCc3sccc3[C@H]2C)nc2cc(-c3cccc(/C=C/C(=O)O)c3F)nn12 (single isomer, unassigned) [Compound M49]	262.19
